Patent publication US4073883A, “Method for treatment of impaired hearing” (priority 1976, dated 1978)

Tests used:
[1] = test system: rats of Wistar strain; assay: Acute toxicity test in rats (single dose, 7 days observation); format: in vivo; details: for Maximum dose (no case of deaths): 7 days
From the text: (§1) In order to evaluate the acute toxicity of a single high dose administration of Coenzyme Q10, male and female rats of Wistar strain and male and female mice of ICR-JCL strain were used, and oral, intramuscular, subcutaneous, and intravenous administrations were studied. For the oral administration of Coenzyme Q10, gum Arabic suspension was used. For the intramuscular, subcutaneous and intravenous administrations, Coenzyme Q10 was used as its solution in a nonionic surfactant, Nikkol HCO-60. Nikkol HCO-60 is a trade name of a non-ionic surfactant comprised of hydrogenated castor oil/polyoxyethylene-60 mole ether available from Nikko Chemicals, Co. Ltd., Japan.
(§2) Observations were carried out for 7 days by using six males and six females for each dose group.

[2] = test system: mice of ICR-JCL strain; assay: Acute toxicity test in mice (single dose, 7 days observation); format: in vivo; details: for Maximum dose (no case of deaths): 7 days
From the text: as §1, §2

[3] = test system: rats of Wistar strain; assay: Subacute oral toxicity test in rats (5 weeks); format: in vivo
Procedure: Coenzyme Q10 was compulsorily and orally administered every day for 5 weeks to each group consisting of 10 male rats and 10 female rats of Wistar strain. The dose was 40, 200, and 1000 mg/Kg/day, respectively. Coenzyme Q10 was used in the form of gum Arabic suspension, while the solution containing gum Arabic alone was used as the control group. Collection of blood and urine samples and autopsies were carried out 5 weeks after the initiation of administration.

[4] = test system: rabbits; assay: Subacute oral toxicity test in rabbits (23 days); format: in vivo
Procedure: Coenzyme Q10 was compulsorily and orally administered every day for 23 days to each group consisting of 6 male rabbits and 5 female rabbits. The dose was 6, 60 and 600 mg/Kg/day, respectively. Coenzyme Q10 was used in the form of gum Arabic suspension, whereas the solution containing gum Arabic alone was used as the control group. On the 24th day, blood samples were collected from all the animals, and 3 males and 2 females from each group were then selectively autopsied.

[5] = test system: rats of Wistar strain; assay: Chronic oral toxicity test in rats (26 weeks); format: in vivo
Procedure: Coenzyme Q10 was compulsorily and orally administered to each group consisting of 10 male rats and 10 female rats of Wistar strain for 26 consecutive weeks in a ratio of 6 days a week. The dose was 6, 60 and 600 mg/Kg/day, respectively. Coenzyme Q10 was used in the form of gum Arabic suspension, whereas the solution containing gum Arabic alone is used as the control group. Collection of blood and urine samples and autopsies were carried out 26 weeks after the administration.

[6] = test system: rats; assay: Teratogenesis test in rats; format: in vivo; details: 6, 60 and 600 mg/Kg/day
[7] = test system: mice; assay: Teratogenesis test in mice; format: in vivo; details: 6, 60 and 600 mg/Kg/day
[8] = test system: patients having impaired hearing caused by administration of a drug; assay: Clinical test on the administration of Coenzyme Q10 for impaired hearing (audiometry); format: in vivo, human
Procedure: 30 Mg/day of Coenzyme Q10 was administered perorally three times a day after meal. Duration of administration differed with patients in the range of from two weeks to four months.
Coenzyme Q10 was administered to 9 patients having impaired hearing caused by administration of a drug (an antibiotic called poison against hearing organs). 8 of 9 patients were being administered with some poison against hearing organs at the time of the first medical examination of otorhinology. The remaining one patient was given streptomycin more than 10 years before then. It was pointed out that labyrinthine disorder was observed already and the administration of the poisons against hearing organs was discontinued in 5 of the 8 cases. In the remaining 3 cases, the treatment of the diseases with the poisons against hearing organs was continued with administration of Coenzyme Q10.
In many cases, a combination of drugs such as combination of streptomycin (SM) with kanamycin (KM), kanendomycin (KDM) or gentamycin (GM) had been used.
Determination of hearing acuity threshold value in air conduction and bone conduction and recruitment test were effected using an audiometer in a sound-proof chamber.
The sum of the air conduction threshold value was determined in terms of decibel units and the values before and after the administration of Coenzyme Q10 were compared with each other.
Air condition region values at 125 Hz, 250 Hz, 1 KHz, 2 KHz, 4 KHz and 8 KHz in audiogram were added together to obtain a value called the total region value at that time. In case the difference in the value between before and after the administration of Coenzyme Q10 is more than ± 35 db, it was judged to be improved or worsened and in case the difference is within 35 db, it was judged to be unchanged. In case a threshold value of a certain frequency is scaled out, a value of the maximum output at that frequency plus 5 db. was employed.

[9] = intramuscular, in Nikkol HCO-60, single dose
[10] = intravenous, in Nikkol HCO-60, single dose
[11] = oral, gum Arabic suspension, single dose
[12] = relative to maximum doses of Table 1
[13] = subcutaneous, in Nikkol HCO-60, single dose
[14] = 6, 60, 600 mg/Kg/day oral, 23 days
[15] = attributed to spontaneous pneumonia and aspiration pneumonia due to an erroneous administration

For `COC1=C(OC)C(=O)C(C/C=C(\C)CC/C=C(\C)CC/C=C(\C)CC/C=C(\C)CC/C=C(\C)CC/C=C(\C)CC/C=C(\C)CC/C=C(\C)CC/C=C(\C)CCC=C(C)C)=C(C)C1=O` [Coenzyme Q10], the “toxicity (overall, acute)” value ([1]; acute, overall) was “extremely low”, the “Maximum dose (no case of deaths)” value [1, 9] was 500 mg/kg and the “Maximum dose (no case of deaths)” value [1, 10] was 250 mg/kg. The deaths ([1]; maximum dose in each route) was “no case of deaths”, the “Maximum dose (no case of deaths)” value [1, 11] was 4000 mg/kg and the LD50 [1, 12] was “far higher than the maximum dose”. The “Maximum dose (no case of deaths)” value [1, 13] was 500 mg/kg, the “toxicity (overall, acute)” value ([2]; acute, overall) was “extremely low” and the “Maximum dose (no case of deaths)” value [2, 9] was 500 mg/kg. The “Maximum dose (no case of deaths)” value [2, 10] was 250 mg/kg, the deaths ([2]; maximum dose in each route) was “no case of deaths” and the “Maximum dose (no case of deaths)” value [2, 11] was 4000 mg/kg. The LD50 [2, 12] was “far higher than the maximum dose”, the “Maximum dose (no case of deaths)” value [2, 13] was 500 mg/kg and the “general condition and body weight vs control” value ([3]; 40, 200, 1000 mg/Kg/day oral, 5 weeks) was “no difference”. The “dead animals during the experiment” value ([3]; attributed to spontaneous pneumonia and aspiration pneumonia due to an error of administration) was 4 animals, the “toxicity seemingly due to the administration” value ([3]; subacute oral, 5 weeks, overall) was “there was not recognized the toxicity” and the “general condition and increase of body weight vs control” value [4, 14] was “no difference”. For the same compound, the “weight of each organ” value [4, 14] was “no effect”, the “electron-microscopic observation of liver” value ([4]; 7th, 14th, and 24th days after the administration) was “there were not recognized abnormal findings” and the findings suggesting toxicity ([4]; subacute oral, 23 days, overall) was “there were not recognized the findings”. The “body weight vs control” value ([5]; 6, 60, 600 mg/Kg/day oral, 26 weeks) was “increased as same as that of the control group”, the “general condition vs control” value ([5]; 6, 60, 600 mg/Kg/day oral, 26 weeks, 6 days a week) was “no difference” and the “biochemical tests of blood and urine vs control” value ([5]; 26 weeks) was “No significant changes were recognized”. The weight of organs ([5]; 26 weeks) was “no significant increase and decrease”, the “deaths, females” value [5, 15] was 3 females and the “deaths, males” value [5, 15] was 11 males. For the same compound, the toxicity ([5]; chronic oral, 26 weeks, overall) was “no toxicity was observed”, the “macroscopical and histological observation vs control” value ([5]; hemoxylin.Eosine staining and liver fat staining, 26 weeks) was “abnormalities were not recognized” and the leukocytal percentages ([5]; not dose related, within the extent of physiological fluctuations) was “some increase and decrease”. The “adverse effects in mothers, fetuses, and newborns” value [6] was “no adverse effects”, the “adverse effects in mothers, fetuses, and newborns” value [7] was “no adverse effects” and the “effectiveness as a medicament for treating impaired hearing” value ([8]; overall conclusion) was “effective as a medicament for treating impaired hearing”. The “ears improved (number of 18 ears)” value ([8]; with Coenzyme Q10, of 18 ears) was 13 ears, the “ears improved (percent)” value ([8]; with Coenzyme Q10, of 18 ears) was 72% and the “ears unchanged (number of 18 ears)” value ([8]; with Coenzyme Q10, of 18 ears) was 5 ears. The “ears unchanged (percent)” value ([8]; with Coenzyme Q10, of 18 ears) was 28% and the worsening ([8]; with Coenzyme Q10, of 18 ears) was “no worsening being observed”.
